Measured values as given in PubChem BioAssay AID1963980 (Molecular Pharmacology Branch, DTP, NCI, 2024).
pIC50: −log10 of the molar value.

Tested on: 475296-252-R-J1-PDC spheroid viability
Assay: Anticancer human tumor 475296-252-R-J1-PDC patient-derived rectal carcinoma cell line growth inhibition [PI3K]
Details: spheroids with HUVEC and MSC; for viability, T/C: stronger effect = lower value; active = viability on the fitted dose curve at most 10% of control; inactive = the rest
Procedure, shortened: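 High-throughput combination screen: PI3K inhibitors crossed with targeted small molecules on complex spheroids of tumor cells, HUVEC and MSCs at 37 degrees C, 5% CO2. Top concentration was at or near clinical Cmax (otherwise 10 microM), with half-log decrements.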

[1] = curve of first compound, second compound 0.0316 µM
[2] = curve of first compound, second compound 0.1 µM
[3] = curve of first compound, second compound 0.316 µM
[4] = curve of first compound, second compound 1 µM
[5] = curve of first compound, second compound 3.16 µM
[6] = curve of first compound, second compound 10 µM
[7] = second compound 0.0316 µM, first compound 0.0316 µM
[8] = second compound 0.0316 µM, first compound 0.1 µM
[9] = second compound 0.1 µM, first compound 0.0316 µM
[10] = second compound 0.1 µM, first compound 0.1 µM
[11] = second compound 0.316 µM, first compound 0.0316 µM
[12] = second compound 0.316 µM, first compound 0.1 µM
[13] = second compound 1 µM, first compound 0.0316 µM
[14] = second compound 1 µM, first compound 0.1 µM
[15] = second compound 3.16 µM, first compound 0.0316 µM
[16] = second compound 3.16 µM, first compound 0.1 µM
[17] = second compound 10 µM, first compound 0.0316 µM
[18] = second compound 10 µM, first compound 0.1 µM
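Note: spheroids exposed to agents for seven days before readout.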

Cn1ncnc1[C@H]1c2n[nH]c(=O)c3cc(F)cc(c23)N[C@@H]1c1ccc(F)cc1 + Cc1nc(NC(=O)N2CCCC2C(N)=O)sc1-c1ccnc(C(C)(C)C(F)(F)F)c1
< 7.00: pIC50 [1] | pIC50 [2] | pIC50 [3] | pIC50 [4] | pIC50 [5] | pIC50 [6]
inactive: viability, T/C (second compound 0.0316 µM, first compound 0.000316 µM) 104% | viability, T/C (second compound 0.0316 µM, first compound 0.001 µM) 88.4% | viability, T/C (second compound 0.0316 µM, first compound 0.00316 µM) 106% | viability, T/C (second compound 0.0316 µM, first compound 0.01 µM) 87.1% | viability, T/C [7] 98.8% | viability, T/C [8] 101% | viability, T/C (second compound 0.1 µM, first compound 0.000316 µM) 92% | viability, T/C (second compound 0.1 µM, first compound 0.001 µM) 87.1% | viability, T/C (second compound 0.1 µM, first compound 0.00316 µM) 94.7% | viability, T/C (second compound 0.1 µM, first compound 0.01 µM) 101% | viability, T/C [9] 110% | viability, T/C [10] 103% | viability, T/C (second compound 0.316 µM, first compound 0.000316 µM) 89.7% | viability, T/C (second compound 0.316 µM, first compound 0.001 µM) 92.4% | viability, T/C (second compound 0.316 µM, first compound 0.00316 µM) 88.9% | viability, T/C (second compound 0.316 µM, first compound 0.01 µM) 99.6% | viability, T/C [11] 105% | viability, T/C [12] 90.8% | viability, T/C (second compound 1 µM, first compound 0.000316 µM) 91.3% | viability, T/C (second compound 1 µM, first compound 0.001 µM) 99.5% | viability, T/C (second compound 1 µM, first compound 0.00316 µM) 101% | viability, T/C (second compound 1 µM, first compound 0.01 µM) 91.7% | viability, T/C [13] 92.6% | viability, T/C [14] 104% | viability, T/C (second compound 3.16 µM, first compound 0.000316 µM) 85.8% | viability, T/C (second compound 3.16 µM, first compound 0.001 µM) 90% | viability, T/C (second compound 3.16 µM, first compound 0.00316 µM) 91.5% | viability, T/C (second compound 3.16 µM, first compound 0.01 µM) 87.7% | viability, T/C [15] 87.7% | viability, T/C [16] 88.6% | viability, T/C (second compound 10 µM, first compound 0.000316 µM) 91.7% | viability, T/C (second compound 10 µM, first compound 0.001 µM) 92.1% | viability, T/C (second compound 10 µM, first compound 0.00316 µM) 84.7% | viability, T/C (second compound 10 µM, first compound 0.01 µM) 83.3% | viability, T/C [17] 91.3% | viability, T/C [18] 84.6%

CC(C)NCC(C(=O)N1CCN(c2ncnc3c2C(C)CC3O)CC1)c1ccc(Cl)cc1 (stereo unspecified)
inactive: viability, T/C (compound 0.0316 µM) 102% [middle of 4 runs] | viability, T/C (compound 0.1 µM) 105% [middle of 4 runs] | viability, T/C (compound 0.316 µM) 89.5% [middle of 4 runs] | viability, T/C (compound 1 µM) 76.1% [middle of 4 runs] | viability, T/C (compound 3.16 µM) 75.5% [middle of 4 runs] | viability, T/C (compound 10 µM) 62.3% [middle of 4 runs]
< 5.00: pIC50 (curve of compound)

CCCS(=O)(=O)Nc1ccc(F)c(C(=O)c2c[nH]c3ncc(-c4ccc(Cl)cc4)cc23)c1F + Cc1nc(NC(=O)N2CCCC2C(N)=O)sc1-c1ccnc(C(C)(C)C(F)(F)F)c1
inactive: viability, T/C [7] 88.8% | viability, T/C [8] 95.5% | viability, T/C (second compound 0.0316 µM, first compound 0.316 µM) 92.2% | viability, T/C (second compound 0.0316 µM, first compound 1 µM) 91.5% | viability, T/C (second compound 0.0316 µM, first compound 3.16 µM) 80.5% | viability, T/C (second compound 0.0316 µM, first compound 10 µM) 94% | viability, T/C [9] 106% | viability, T/C [10] 94.6% | viability, T/C (second compound 0.1 µM, first compound 0.316 µM) 88% | viability, T/C (second compound 0.1 µM, first compound 1 µM) 81.2% | viability, T/C (second compound 0.1 µM, first compound 3.16 µM) 98.7% | viability, T/C (second compound 0.1 µM, first compound 10 µM) 100% | viability, T/C [11] 85% | viability, T/C [12] 94.8% | viability, T/C (second compound 0.316 µM, first compound 0.316 µM) 98.2% | viability, T/C (second compound 0.316 µM, first compound 1 µM) 92.6% | viability, T/C (second compound 0.316 µM, first compound 3.16 µM) 91.1% | viability, T/C (second compound 0.316 µM, first compound 10 µM) 96.3% | viability, T/C [13] 83.1% | viability, T/C [14] 97.3% | viability, T/C (second compound 1 µM, first compound 0.316 µM) 88.2% | viability, T/C (second compound 1 µM, first compound 1 µM) 89.8% | viability, T/C (second compound 1 µM, first compound 3.16 µM) 89.3% | viability, T/C (second compound 1 µM, first compound 10 µM) 82% | viability, T/C [15] 83.6% | viability, T/C [16] 92.8% | viability, T/C (second compound 3.16 µM, first compound 0.316 µM) 87.6% | viability, T/C (second compound 3.16 µM, first compound 1 µM) 92% | viability, T/C (second compound 3.16 µM, first compound 3.16 µM) 89.9% | viability, T/C (second compound 3.16 µM, first compound 10 µM) 73% | viability, T/C [17] 80.4% | viability, T/C [18] 82% | viability, T/C (second compound 10 µM, first compound 0.316 µM) 82.1% | viability, T/C (second compound 10 µM, first compound 1 µM) 80.4% | viability, T/C (second compound 10 µM, first compound 3.16 µM) 76.3% | viability, T/C (second compound 10 µM, first compound 10 µM) 66.1%
< 5.00: pIC50 [1] | pIC50 [2] | pIC50 [3] | pIC50 [4] | pIC50 [5] | pIC50 [6]
